{"source": "patent US9994528B2", "about": "“Certain amino-pyridines and amino-triazines, compositions thereof, and methods for their use” (Cytokinetics, Inc., priority 2010, dated 2018)", "data": [{"test_system": "rabbit skeletal myofibrils (approximately 90% fast fibers)", "assay": "Activation of fast skeletal myofibrils (PUMA coupled-enzyme ATPase assay)", "type": "biochemical", "details": "AC1.4 = concentration at which the compound increased the enzymatic activity by 40%; myofibril suspension at calcium level pCa25; PM12 buffer pH 6.8", "summary_of_the_method": "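Fast skeletal myofibrils from rabbit psoas muscle (roughly 90% fast fibers) were homogenized, washed with Triton X-100 to strip membranes, and frozen in 10% sucrose at −80° C. Their calcium-regulated ATPase activity was measured at pCa25 in PM12 buffer (12 mM Pipes, 2 mM MgCl2, 1 mM DTT, pH 6.8). A pyruvate kinase/lactate dehydrogenase system coupled ADP regeneration to NADH oxidation, read at 340 nm.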", "values": [{"compound": "COC(=O)c1ccc(-c2cnc(NC(C)(C)c3ncccc3F)nn2)c(F)c1", "note": "[methyl 3-fluoro-4-(3-{[1-(3-fluoro(2-pyridyl))-isopropyl]amino}(1,2,4-triazin-6-yl))benzoate]", "Mean AC1.4": "D (D=>20 uM)"}, {"compound": "COC(=O)c1ccc(F)c(-c2cnc(NCC3(c4ccccn4)CCC3)nn2)c1", "note": "[methyl 4-fluoro-3-(3-{[(2-pyridylcyclobutyl)methyl]amino}(1,2,4-triazin-6-yl))benzoate]", "Mean AC1.4": "C (C=10-20 uM)"}, {"compound": "COC(=O)c1ccc(F)c(-c2cnc(NC(C)(C)c3cccc(S(C)(=O)=O)c3)nn2)c1", "note": "[methyl 4-fluoro-3-[3-({1-methyl-1-[3-(methylsulfonyl)phenyl]ethyl}amino)(1,2,4-triazin-6-yl)]benzoate]", "Mean AC1.4": "D (D=>20 uM)"}, {"compound": "OCc1cnc(-c2cnc(NC[C@]3(c4ncccc4F)C[C@H](F)C3)nn2)s1", "note": "[{2-[3-({[3-fluoro-1-(3-fluoro(2-pyridyl))cyclobutyl]methyl}amino)-1,2,4-triazin-6-yl]-1,3-thiazol-5-yl}methan-1-ol]", "Mean AC1.4": "B (B=1-10 uM)"}, {"compound": "OCc1cnc(-c2cnc(NCC3(c4ncccc4F)CCC3)nn2)s1", "note": "[{2-[3-({[(3-fluoro-2-pyridyl)cyclobutyl]methyl}amino)-1,2,4-triazin-6-yl]-1,3-thiazol-5-yl}methan-1-ol]", "Mean AC1.4": "C (C=10-20 uM)"}, {"compound": "CNC(=O)c1ccc(F)c(-c2cnc(NCC3(c4ncccc4Cl)CC(F)(F)C3)nn2)c1", "note": "[{3-[3-({[1-(3-chloro(2-pyridyl))-3,3-difluorocyclobulyl]methyl}amino)(1,2,4-triazin-6-yl)]-4-fluorophenyl}-N-methylcarboxamide]", "Mean AC1.4": "B (B=1-10 uM)"}, {"compound": "CNC(=O)c1ccc(F)c(-c2cnc(NC[C@]3(c4ncccc4Cl)C[C@H](F)C3)nn2)c1", "note": "[{3-[3-({[1-(3-chloro(2-pyridyl))-3-fluorocyclobutyl]methyl}amino)(1,2,4-triazin-6-yl)]-4-fluorophenyl}-N-methylcarboxamide]", "Mean AC1.4": "A (A=<1 uM)"}, {"compound": "CNC(=O)c1cccc(-c2cnc(NC[C@]3(c4ncccc4Cl)C[C@H](F)C3)nn2)c1", "note": "[{3-[3-({[1-(3-chloro(2-pyridyl))-3-fluorocyclobutyl]methyl}amino)(1,2,4-triazin-6-yl)]phenyl}-N-methylcarboxamide]", "Mean AC1.4": "B (B=1-10 uM)"}, {"compound": "CNC(=O)c1cccc(-c2cnc(NC[C@]3(c4ncccc4F)C[C@H](F)C3)nn2)c1", "note": "[{3-[3-({[3-fluoro-1-(3-fluoro(2-pyridyl))cyclobulyl]methyl}amino)(1,2,4-triazin-6-yl)]phenyl}-N-methylcarboxamide]", "Mean AC1.4": "B (B=1-10 uM)"}, {"compound": "CNC(=O)c1ccc(O)c(-c2cnc(NC[C@]3(c4ncccc4F)C[C@H](F)C3)nn2)c1", "note": "[{3-[3-({[3-fluoro-1-(3-fluoro(2-pyridyl))cyclobutyl]methyl}amino)(1,2,4-triazin-6-yl)]-4-hydroxyphenyl}-N-methylcarboxamide]", "Mean AC1.4": "A (A=<1 uM)"}, {"compound": "CNC(=O)c1ccc(F)c(-c2cnc(NC[C@]3(c4ncccc4F)C[C@H](F)C3)nn2)c1", "note": "[{4-fluoro-3-[3-({[3-fluoro-1-(3-fluoro(2-pyridyl))cyclobutyl]methyl}amino)(1,2,4-triazin-6-yl)]phenyl}-N-methylcarboxamide]", "Mean AC1.4": "B (B=1-10 uM)"}, {"compound": "CNC(=O)c1ccc(F)c(-c2cnc(NCC3(c4ncccc4F)CCC3)nn2)c1", "note": "[{4-fluoro-3-[3-({[(3-fluoro(2-pyridyl))cyclobutyl]methyl}amino)(1,2,4-triazin-6-yl)]phenyl}-N-methylcarboxamide]", "Mean AC1.4": "B (B=1-10 uM)"}, {"compound": "CC(C)(Nc1ncc(-c2ncc(CN)s2)nn1)c1ncccc1Cl", "note": "[{6-[5-(aminomethyl)(1,3-thiazol-2-yl)](1,2,4-triazin-3-yl)}[1-(3-chloro(2-pyridyl))-isopropyl]amine]", "Mean AC1.4": "D (D=>20 uM)"}, {"compound": "NCc1cnc(-c2cnc(NC[C@]3(c4ncccc4F)C[C@H](F)C3)nn2)s1", "note": "[{6-[5-(aminomethyl)(1,3-thiazol-2-yl)](1,2,4-triazin-3-yl)}{[3-fluoro-1-(3-fluoro(2-pyridyl))cyclobutyl]methyl}amine]", "Mean AC1.4": "B (B=1-10 uM)"}, {"compound": "CC(C)(Nc1ncc(-c2cc(CN)ccc2F)nn1)c1ncccc1F", "note": "[{6-[5-(aminomethyl-2-fluorophenyl](1,2,4-triazin-3-yl)}[1-(3-fluoro(2-pyridyl))-isopropyl]amine]", "Mean AC1.4": "D (D=>20 uM)"}]}]}
